From patent US11986471B2, “Compounds and methods of use” (Tango Therapeutics, Inc., priority 2018, dated 2024)

Experiments:
Type in all cases: biochemical
PRMT5 [1] = biological target: T1, PRMT5 (Homo sapiens, UniProt O14744); test: PRMT5 IC50 assay in the presence of MTA as cofactor; conditions: for IC50: PRMT5, MTA as cofactor
T1 construct: purchased Viva (custom protein)
Description: (§1) Table 1a indicates IC50 values (μM) against PRMT5 for exemplary compounds in the presence of SAM as cofactor, with no cofactor and with MTA as cofactor, respectively (columns 3-5). […] The Ki values can be calculated from the IC50 values as described in the Examples section. As detailed in the Examples section, for the assay performed in the presence of SAM, IC50=Ki×1.5 (Ki=IC50/1.5). For the assay performed in the presence of MTA, IC50=Ki×13.5 (Ki=IC50/13.5). Column 6 indicates the ratio between the Ki of compounds in the presence of SAM and the Ki of compounds in the presence of MTA

PRMT5 [2] = biological target: T1, PRMT5; test: PRMT5 IC50 assay with no cofactor
Description: as §1

PRMT5 [3] = biological target: T1, PRMT5; test: PRMT5 IC50 assay in the presence of SAM as cofactor
Description: as §1

[4] = ratio between the Ki in the presence of SAM and the Ki in the presence of MTA
[5] = ratio between Ki in the presence of SAM and Ki in the presence of MTA

T1 sequence (O14744 whole entry): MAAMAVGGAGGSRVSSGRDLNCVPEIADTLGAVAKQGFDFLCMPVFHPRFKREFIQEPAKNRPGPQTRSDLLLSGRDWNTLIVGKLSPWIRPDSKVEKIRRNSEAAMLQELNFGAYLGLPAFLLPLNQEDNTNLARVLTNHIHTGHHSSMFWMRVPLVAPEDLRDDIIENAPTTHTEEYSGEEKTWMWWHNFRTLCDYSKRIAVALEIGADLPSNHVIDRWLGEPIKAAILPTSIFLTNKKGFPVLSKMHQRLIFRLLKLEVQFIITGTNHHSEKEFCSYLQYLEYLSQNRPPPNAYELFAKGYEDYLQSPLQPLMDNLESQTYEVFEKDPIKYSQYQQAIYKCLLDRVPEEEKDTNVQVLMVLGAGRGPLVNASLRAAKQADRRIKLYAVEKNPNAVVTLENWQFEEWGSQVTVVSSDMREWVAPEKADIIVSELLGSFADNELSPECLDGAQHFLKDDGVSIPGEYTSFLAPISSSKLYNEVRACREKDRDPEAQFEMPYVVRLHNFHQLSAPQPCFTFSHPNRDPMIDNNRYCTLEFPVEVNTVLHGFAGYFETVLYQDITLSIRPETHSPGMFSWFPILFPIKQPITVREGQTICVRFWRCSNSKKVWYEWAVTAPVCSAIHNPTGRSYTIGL
T1 sequence (Q9BQA1 whole entry partner): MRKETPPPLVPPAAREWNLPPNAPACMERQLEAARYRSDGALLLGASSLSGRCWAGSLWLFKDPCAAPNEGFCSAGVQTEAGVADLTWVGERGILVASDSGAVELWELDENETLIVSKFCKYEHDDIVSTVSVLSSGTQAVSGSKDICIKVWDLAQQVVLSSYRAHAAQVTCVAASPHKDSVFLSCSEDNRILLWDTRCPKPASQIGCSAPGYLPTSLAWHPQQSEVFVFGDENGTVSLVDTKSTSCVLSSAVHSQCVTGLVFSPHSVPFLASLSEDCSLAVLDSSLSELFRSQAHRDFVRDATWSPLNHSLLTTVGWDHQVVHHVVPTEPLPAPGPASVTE

**Q.** CCC(=O)N1CC(Nc2cc(C(=O)NC[C@H](O)CN3CCc4c(ccc(OCc5cnco5)c4C)C3)ncn2)C1 [Compound 567, N-[(2S)-2-hydroxy-3-{5-methyl-6-[(1,3-oxazol-5-yl)methoxy]-1,2,3,4-tetrahydroisoquinolin-2-yl}propyl]-6-[(1-propanoylazetidin-3-yl)amino]pyrimidine-4-carboxamide] was tested. Which IC50 (PRMT5 [1]) did it give?
**A.** 50 to 500 nM

**Q.** And the “SAM/MTA Ratio” value (PRMT5 [1]; [4])?
**A.** A (a Ki ratio greater than or equal to 10 fold between the Ki in the presence of SAM and the Ki in the presence of MTA)

**Q.** And the IC50 (PRMT5 [2])?
**A.** ≥ 5000 nM

**Q.** And the IC50 (PRMT5 [3])?
**A.** 50 to 500 nM

**Q.** What does the source list for CO[C@H]1CC[C@@H](Nc2cc(C(=O)NC[C@H](O)CN3CCc4c(ccc(OCc5cnco5)c4C)C3)ncn2)CC1 [Compound 541, N-[(2S)-2-hydroxy-3-{5-methyl-6-[(1,3-oxazol-5-yl)methoxy]-1,2,3,4-tetrahydroisoquinolin-2-yl}propyl]-6-{[(1s,4s)-4-methoxycyclohexyl]amino}pyrimidine-4-carboxamide]?
**A.** IC50 (PRMT5 [1]): 50 to 500 nM; SAM/MTA Ratio (PRMT5 [1]; [4]): A (a Ki ratio greater than or equal to 10 fold between the Ki in the presence of SAM and the Ki in the presence of MTA); IC50 (PRMT5 [2]): ≥ 5000 nM; IC50 (PRMT5 [3]): 500 to 5000 nM

**Q.** How did the IC50 (PRMT5 [1]) turn out when CC(=O)N1CCC(Nc2cccc(C(=O)NC[C@H](O)CN3CCc4cc(OCc5cnco5)ccc4C3)c2)C1 (stereo partly drawn) [Compound 558, 3-((1-acetylpyrrolidin-3-yl)amino)-N—((S)-2-hydroxy-3-(6-(oxazol-5-ylmethoxy)-3,4-dihydroisoquinolin-2(1H)-yl)propyl)benzamide] was run?
**A.** 500 to 5000 nM

**Q.** And the “SAM/MTA Ratio” value (PRMT5 [1]; [4])?
**A.** A (a Ki ratio greater than or equal to 10 fold between the Ki in the presence of SAM and the Ki in the presence of MTA)

**Q.** And the IC50 (PRMT5 [2])?
**A.** ≥ 5000 nM

**Q.** What about the IC50 (PRMT5 [3]) of the same compound?
**A.** 500 to 5000 nM

**Q.** Which IC50 (PRMT5 [1]) does the source give for CC(=O)N1CC(Nc2cc(C(=O)NCC(O)CN3CCc4nc(OCc5ocnc5C)ccc4C3)nc(N3CCCCC3)n2)C1 (stereo not drawn) [Compound 650] here?
**A.** 50 to 500 nM

**Q.** And the “SAM/MTA Ratio” value (PRMT5 [1]; [5])?
**A.** A (a Ki ratio greater than or equal to 10 fold between the Ki in the presence of SAM and the Ki in the presence of MTA)

**Q.** What about the IC50 (PRMT5 [2]; read-out: No Co-factor IC50) of the same compound?
**A.** 500 to 5000 nM

**Q.** What about the IC50 (PRMT5 [3]) of the same compound?
**A.** 50 to 500 nM

**Q.** Which results are given for Cc1c(OCc2cnco2)ccc2c1CCN(C[C@@H](O)CNC(=O)c1cc(N[C@H]3C[C@H](C(=O)N4CCC4)C3)ncn1)C2 [Compound 519, N-[(2S)-2-hydroxy-3-{5-methyl-6-[(1,3-oxazol-5-yl)methoxy]-1,2,3,4-tetrahydroisoquinolin-2-yl}propyl]-6-{[(1r,3r)-3-(azetidine-1-carbonyl)cyclobutyl]amino}pyrimidine-4-carboxamide]?
**A.** IC50 (PRMT5 [1]): 500 to 5000 nM; SAM/MTA Ratio (PRMT5 [1]; [4]): A (a Ki ratio greater than or equal to 10 fold between the Ki in the presence of SAM and the Ki in the presence of MTA); IC50 (PRMT5 [2]): ≥ 5000 nM; IC50 (PRMT5 [3]): 500 to 5000 nM

**Q.** What does the source list for Cc1c(OCc2cnco2)ccc2c1CCN(C[C@@H](O)CNC(=O)c1ccnc(Nc3cccnc3)c1)C2 [Compound 531, N-[(2S)-2-hydroxy-3-{5-methyl-6-[(1,3-oxazol-5-yl)methoxy]-1,2,3,4-tetrahydroisoquinolin-2-yl}propyl]-2-[(pyridin-3-yl)amino]pyridine-4-carboxamide]?
**A.** IC50 (PRMT5 [1]): 500 to 5000 nM; SAM/MTA Ratio (PRMT5 [1]; [4]): A (a Ki ratio greater than or equal to 10 fold between the Ki in the presence of SAM and the Ki in the presence of MTA); IC50 (PRMT5 [2]): ≥ 5000 nM; IC50 (PRMT5 [3]): 500 to 5000 nM

**Q.** O=C(NC[C@H](O)CN1CCc2c(ccc(OCc3cnco3)c2Br)C1)c1cc(NC2CCCCC2)ncn1 [Compound 377, (S)—N-(3-(5-bromo-6-(oxazol-5-ylmethoxy)-3A-dihydroisoquinolin-2(1H)-yl)-2-hydroxypropyl)-6-(cyclohexylamino)pyrimidine-4-carboxamide] was tested. Which IC50 (PRMT5 [1]) did it give?
**A.** 500 to 5000 nM

**Q.** What about the “SAM/MTA Ratio” value (PRMT5 [1]; [5]) of the same compound?
**A.** A (a Ki ratio greater than or equal to 10 fold between the Ki in the presence of SAM and the Ki in the presence of MTA)

**Q.** What about the IC50 (PRMT5 [2]; read-out: No Co-factor IC50) of the same compound?
**A.** ≥ 5000 nM

**Q.** And the IC50 (PRMT5 [3])?
**A.** 500 to 5000 nM

**Q.** Which IC50 (PRMT5 [1]) does the source give for O=C(NC[C@H](O)CN1CCc2cc(OCc3cnco3)ccc2C1)c1cc(NC2CCOCC2)ccn1 [Compound 511, (S)—N-(2-hydroxy-3-(6-(oxazol-5-ylmethoxy)-3,4-dihydroisoquinolin-2(1H)-yl)propyl)-4-((tetrahydro-2H-pyran-4-yl)amino)picolinamide] here?
**A.** 500 to 5000 nM

**Q.** What about the “SAM/MTA Ratio” value (PRMT5 [1]; [4]) of the same compound?
**A.** A (a Ki ratio greater than or equal to 10 fold between the Ki in the presence of SAM and the Ki in the presence of MTA)

**Q.** And the IC50 (PRMT5 [2])?
**A.** ≥ 5000 nM

**Q.** And the IC50 (PRMT5 [3])?
**A.** 500 to 5000 nM

**Q.** Cc1c(OCc2cnco2)ccc2c1CCN(C[C@@H](O)CNC(=O)c1cncc(NC3CCOC3)c1)C2 (stereo partly drawn) [Compound 510] was tested. Which IC50 (PRMT5 [1]) did it give?
**A.** 50 to 500 nM

**Q.** And the “SAM/MTA Ratio” value (PRMT5 [1]; [4])?
**A.** A (a Ki ratio greater than or equal to 10 fold between the Ki in the presence of SAM and the Ki in the presence of MTA)

**Q.** What about the IC50 (PRMT5 [2]) of the same compound?
**A.** ≥ 5000 nM

**Q.** What about the IC50 (PRMT5 [3]) of the same compound?
**A.** 500 to 5000 nM

**Q.** With O=C(NC[C@H](O)CN1CCc2cc(OCc3cnco3)ccc2C1)c1cc(NC2CCC2)ncn1 [Compound 538, (S)-6-(cyclobutylamino)-N-(2-hydroxy-3-(6-(oxazol-5-ylmethoxy)-3,4-dihydroisoquinolin-2(1H)-yl)propyl)pyrimidine-4-carboxamide] as the compound, how does the IC50 (PRMT5 [1]) read?
**A.** 50 to 500 nM

**Q.** And the “SAM/MTA Ratio” value (PRMT5 [1]; [4])?
**A.** A (a Ki ratio greater than or equal to 10 fold between the Ki in the presence of SAM and the Ki in the presence of MTA)

**Q.** What about the IC50 (PRMT5 [2]) of the same compound?
**A.** ≥ 5000 nM

**Q.** What about the IC50 (PRMT5 [3]) of the same compound?
**A.** 500 to 5000 nM

**Q.** Which results are given for Cc1c(OCc2cnco2)ccc2c1CCN(C[C@@H](O)CNC(=O)c1ccnc(N[C@H]3C[C@H](O)C3)c1)C2 [Compound 552, N—((S)-2-hydroxy-3-(5-methyl-6-(oxazol-5-ylmethoxy)-3,4-dihydroisoquinolin-2(1H)-yl)propyl)-2-(((1r,3S)-3-hydroxycyclobutyl)amino)isonicotinamide]?
**A.** IC50 (PRMT5 [1]): 500 to 5000 nM; SAM/MTA Ratio (PRMT5 [1]; [4]): A (a Ki ratio greater than or equal to 10 fold between the Ki in the presence of SAM and the Ki in the presence of MTA); IC50 (PRMT5 [2]): ≥ 5000 nM; IC50 (PRMT5 [3]): 500 to 5000 nM

**Q.** Which IC50 (PRMT5 [1]) does the source give for CC(=O)N1CC(Nc2cc(C(=O)NCC(O)CN3CCc4c(C)c(OCc5ocnc5C)cc(F)c4C3)nc(N3CCCCC3)n2)C1 (stereo not drawn) [Compound 651] here?
**A.** 50 to 500 nM

**Q.** What about the “SAM/MTA Ratio” value (PRMT5 [1]; [5]) of the same compound?
**A.** A (a Ki ratio greater than or equal to 10 fold between the Ki in the presence of SAM and the Ki in the presence of MTA)

**Q.** And the IC50 (PRMT5 [2]; read-out: No Co-factor IC50)?
**A.** 500 to 5000 nM

**Q.** What about the IC50 (PRMT5 [3]) of the same compound?
**A.** 50 to 500 nM

**Q.** What does the source list for CC(=O)N1CCC(Nc2cc(C(=O)NC[C@@H](O)CN3CCc4c(C)c(OCc5ocnc5C)cc(F)c4C3)cc(N3CCCCC3)n2)CC1 [Compound 652]?
**A.** IC50 (PRMT5 [1]): 50 to 500 nM; SAM/MTA Ratio (PRMT5 [1]; [5]): A (a Ki ratio greater than or equal to 10 fold between the Ki in the presence of SAM and the Ki in the presence of MTA); IC50 (PRMT5 [2]; read-out: No Co-factor IC50): 500 to 5000 nM; IC50 (PRMT5 [3]): 50 to 500 nM

**Q.** For CC(=O)N1CC2CC1CC2Nc1cc(C(=O)NC[C@H](O)CN2CCc3cc(OCc4ocnc4C)ccc3C2)ncn1 (stereo partly drawn) [Compound 632, 6-({2-acetyl-2-azabicyclo[2.2.1]heptan-5-yl}amino)-N-[(2S)-2-hydroxy-3-{6-[(4-methyl-1,3-oxazol-5-yl)methoxy]-1,2,3,4-tetrahydroisoquinolin-2-yl}propyl]pyrimidine-4-carboxamide], which IC50 (PRMT5 [1]) is on record?
**A.** 50 to 500 nM

**Q.** And the “SAM/MTA Ratio” value (PRMT5 [1]; [5])?
**A.** A (a Ki ratio greater than or equal to 10 fold between the Ki in the presence of SAM and the Ki in the presence of MTA)

**Q.** What about the IC50 (PRMT5 [2]; read-out: No Co-factor IC50) of the same compound?
**A.** ≥ 5000 nM

**Q.** What about the IC50 (PRMT5 [3]) of the same compound?
**A.** 50 to 500 nM

**Q.** Which IC50 (PRMT5 [1]) does the source give for CC(=O)N1CC(Nc2cc(C(=O)NC[C@H](O)CN3CCc4cc(OCc5cnco5)ccc4C3)ncn2)C1 [Compound 562, (S)-6-((1-acetylazetidin-3-yl)amino)-N-(2-hydroxy-3-(6-(oxazol-5-ylmethoxy)-3A-dihydroisoquinolin-2(1H)-yl)propyl)pyrimidine-4-carboxamide] here?
**A.** 50 to 500 nM

**Q.** And the “SAM/MTA Ratio” value (PRMT5 [1]; [4])?
**A.** A (a Ki ratio greater than or equal to 10 fold between the Ki in the presence of SAM and the Ki in the presence of MTA)

**Q.** And the IC50 (PRMT5 [2])?
**A.** ≥ 5000 nM

**Q.** What about the IC50 (PRMT5 [3]) of the same compound?
**A.** 500 to 5000 nM
